The target in this test is T1, mineralocorticoid receptor (MR) (Homo sapiens, UniProt P08235).
T1 construct: expressed in transfected cells
T1 sequence (P08235 726-964 limits assumed): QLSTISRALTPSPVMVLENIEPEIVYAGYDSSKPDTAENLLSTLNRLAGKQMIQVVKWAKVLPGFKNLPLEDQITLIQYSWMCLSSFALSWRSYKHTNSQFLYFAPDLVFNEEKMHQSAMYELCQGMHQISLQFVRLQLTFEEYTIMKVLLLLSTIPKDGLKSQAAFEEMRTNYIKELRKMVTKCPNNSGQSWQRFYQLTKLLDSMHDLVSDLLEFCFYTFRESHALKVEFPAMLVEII
As to the kind of experiment: MR Gal4-LBD luciferase reporter gene assay in HEK293T cells (antagonism of 0.8 nM aldosterone). The format is cell-based. The text has this:
By the characteristic of chemiluminescence reaction produced by combination of luciferase and substrate, a Gal4 DNA binding domain (DBD) fused plasmid containing a mineralocorticoid receptor (MR) ligand binding domain (LBD) and a firefly luciferase reporter gene plasmid under the control of Gal4 UAS (upstream activation sequence) were transfected into human embryonic kidney cells (HEK293). Changes of […] were judged by a level of firefly luciferase activity.
All compounds were dissolved in DMSO to prepare a 25 mM stock solution, and stored in a refrigerator at −20° C.
• 1) A compound to be tested was subjected to 3-times gradient dilution with the DMSO, with 10 concentration gradients and an initial concentration of 10 mM. • 2) A positive compound (Finerenone) was subjected to 3-times gradient dilution with the DMSO, with 10 concentration gradients and an initial concentration of 1 mM. • 3) 1000× positive control (1 mM, Finerenone) and 1000× negative control (100% DMSO) were prepared. • 4) A compound plate was sealed and shaken for 5 minutes.
• 5) All cells were cultured by ATCC standard operation, and HEK293T was experimented in an exponential growth phase. • 6) A culture medium supernatant was gently discarded. The cells were washed with PBS twice.
(3) The cells were digested with pancreatin digestive juice, the digestion was stopped with a complete culture solution, and then the cells were collected and counted.
(4) 6×10^6 HEK293T cells were inoculated into a 100 mm cell culture dish.
(5) The culture dish inoculated with the cells was cultured in a 5% CO2 incubator at 37° C. for 16 hours overnight.
• 1) Lipofectamine® 3000&P3000 transfection reagents were placed at room temperature. • 2) The Lipofectamine® 3000 reagent was added into an Opti-MEM™ culture medium, and meanwhile, the P3000, the plasmid and the Opti-MEM™ culture medium were added into another tube, taking care not to touch the tube wall. • 3) The mixture was mixed evenly by a pipette, and allowed to stand at room temperature for 5 minutes. • 4) The plasmid was added into the diluted transfection reagent, mixed evenly by a pipette, and allowed to stand at room temperature for 20 minutes. • 5) The transfection reagent mixed with the plasmid was added into a […] cell culture dish. • 6) The culture dish was cultured in a 5% CO2 incubator at 37° C. for 5 hours to 6 hours.
• 1) 25 nL of diluted compound was transferred to a cell culture plate with Echo655. • 2) The cells (referring to step 1.3) were inoculated into a 384 cell culture plate, with 17,000 cells, 25 μL of phenol red-free DMEM culture medium containing 5% CFBS and 0.8 nM Aldosteron per well.
(3) The cell culture plate was cultured in a 5% CO2 incubator at 37° C. for 18 hours to 20 hours overnight.
• 1) A Britelite plus detection reagent was placed at room temperature. 2) The 384 cell plate was placed at room temperature. • 3) 25 μL of Britelite plus detection reagent was added into each well of the cell culture plate. • 4) A luminescence was detected with Envision.
• 1) a firefly luciferase signal was obtained by reading the Luminescence to calculate an inhibition rate; • 2) % inhibition rate=100−[(RLU compound−avgRLU positive control)/(RLU negative control−avgRLU positive control)×100%, wherein the avgRLU positive control was an average value of Luminescences of all positive control wells in the whole plate; the avgRLU negative control was an average value of Luminescences of all negative control wells in the whole plate; and the RLU compound was Luminescence values of compounds to be tested with different concentrations; and • 3) IC50 of the compound was calculated by Graphpad8.0 Drawing software.
As for `CCOc1ncc(C)c2c1C(c1ccc(C#N)cc1OC)C(c1ncco1)=C(C)N2` (stereo not drawn) [Example 1], the IC50 is 192 nM. The value for `CCOc1ncc(C)c2c1C(c1ccc(C#N)cc1OC)C(c1nnco1)=C(C)N2` (stereo not drawn) [Example 2, 4-(5-ethoxy-2,8-dimethyl-3-(1,3,4-oxadiazole-2-yl)-1,4-dihydro-1,6-naphthyridine-4-yl)-3-methoxybenzonitrile] was 48.9 nM; that for `CCOc1ncc(C)c2c1C(c1ccc(C#N)cc1OC)C(c1nnc(C)o1)=C(C)N2` (stereo not drawn) [Example 3, 4-(5-ethoxy-2,8-dimethyl-3-(5-methyl-1,3,4-oxadiazole-2-yl)-1,4-dihydro-1,6-naphthyridine-4-yl)-3-methoxybenzonitrile] was 113 nM; that for `CCOc1nc2c(c3c1C(c1ccc(C#N)cc1OC)C(C(N)=O)=C(C)N3)CCC2` (stereo not drawn) [Example 4, 4-(4-cyano-2-methoxyphenyl)-5-ethoxy-2-methyl-4,7,8,9-tetrahydrocyclopentane-1H-cyclopentamide] was 111 nM.

Take `COc1cc(C#N)ccc1C1C(C#N)=C(C)Nc2c1ccc1c2CCC1` (stereo not drawn) [Example 5, 4-(4-cyano-2-methoxyphenyl)-2-methyl-4,7,8,9-tetrahydrocyclopentane-3-carbonitrile]: the half-inhibitory concentration (IC50) was 235 nM. As for `CCOc1ncc(C)c2c1C(c1ccc(C#N)c3c1OCCC3)C(C(N)=O)=C(C)N2` (stereo not drawn) [Example 6, 4-(5-cyanored-8-yl)-5-ethoxy-2,8-dimethyl-1,4-dihydro-1,6-naphthyridine-3-formamide], the figure is 21.6 nM; as for `COc1cc(C#N)ccc1C1C(C#N)=C(C)Nc2c(C)cn3nccc3c21` (stereo not drawn) [Example 7, 10-(4-cyano-2-methoxyphenyl)-6,8-dimethyl-7H,10H-pyrazolo[3,2-f]1,6-naphthyridine-9-carbonitrile], 322 nM; as for `COc1cc(C#N)ccc1C1C(C#N)=C(C)Nc2sc3ccccc3c21` (stereo not drawn) [Example 8, 4-(4-cyano-2-methoxyphenyl)-2-methyl-1,4-dihydrobenzo[4,5]thieno[2,3-b]pyridine-3-carbonitrile], 20.4 nM. As for `CCOc1nn(C)c2c1C(c1ccc(C#N)cc1OC)C(C#N)=C(C)N2` (stereo not drawn) [Example 9, 4-(4-cyano-2-methoxyphenyl)-3-ethoxy-1,6-dimethyl-4,7-dihydropyrazolo[3,4-b]pyridine-5-carbonitrile], the half-maximal inhibitory concentration (IC50) turned out to be 661 nM. In the case of `COc1cc(C#N)ccc1C1C(C#N)=C(C)Nc2c(C)cc3nncn3c21` (stereo not drawn) [Example 10, 9-(4-cyano-2-methoxyphenyl)-5,7-dimethyl-6,9-dihydro[1,2,4]triazolo[4,3-a][1,5]naphthyridine-8-carbonitrile], the IC50 stood at 348 nM. As to `CCOc1ncc(C)c2c1C(c1ccc(C#N)c3c1OCC3)C(C(N)=O)=C(C)N2` (stereo not drawn) [Example 11, 4-(4-cyano-2,3-dihydrobenzofuran-7-yl)-5-ethoxy-2,8-dimethyl-1,4-dihydro-1,6-naphthyridine-3-formamide], the half-maximal inhibitory concentration (IC50) is 92.1 nM. As for `CCOc1nc2ccccc2c2c1C(c1ccc(C#N)cc1OC)C(C#N)=C(C)N2` (stereo not drawn) [Example 12, 4-(4-cyano-2-methoxyphenyl)-5-ethoxy-2-methyl-1H,4H-benzo[h]-1,6-naphthyridine-3-carbonitrile], the figure is 215 nM; as for `CCOc1nc2ccsc2c2c1C(c1ccc(C#N)cc1OC)C(C(N)=O)=C(C)N2` (stereo not drawn) [Example 13, 6-(4-cyano-2-methoxyphenyl)-5-ethoxy-8-methyl-6,9-dihydrothieno[3,2-h][1,6]naphthyridine-7-formamide], 232 nM; as for `CCOc1ncc(C)c2c1C(c1ccc(C#N)c3c1OCO3)C(C(N)=O)=C(C)N2` (stereo not drawn) [Example 14, 4-(7-cyanobenzo[d][1,3]dioxacyclopenten-4-yl)-5-ethoxy-2,8-dimethyl-1,4-dihydro-1,6-naphthyridine-3-formamide], 46.2 nM. The value for `CC1=C(C(N)=O)C(c2ccc(C#N)c3c2OCC3)c2c(OC3CCCC3)ncc(C)c2N1` (stereo not drawn) [Example 15, 4-(4-cyano-2,3-dihydrobenzofuran-7-yl)-5-cyclopentoxy-2,8-dimethyl-1,4-dihydro-1,6-naphthyridine-3-formamide] was 18.2 nM; that for `CC1=C(C(N)=O)C(c2ccc(C#N)c3c2OCC3)c2c(OCC3CC(F)(F)C3)ncc(C)c2N1` (stereo not drawn) [Example 16] was 34.1 nM; that for `CC1=C(C(N)=O)C(c2ccc(C#N)c3c2OCC3)c2c(OC(F)F)ncc(C)c2N1` (stereo not drawn) [Example 17, 4-(4-cyano-2,3-dihydrobenzofuran-7-yl)-5-(difluoromethoxy)-2,8-dimethyl-1,4-dihydro-1,6-naphthyridine-3-formamide] was 19.2 nM. As for `CC1=C(C(N)=O)C(c2ccc(C#N)c3c2OCC3)c2c(OC3CC3)ncc(C)c2N1` (stereo not drawn) [Example 18, 4-(4-cyano-2,3-dihydrobenzofuran-7-yl)-5-cyclopropoxy-2,8-dimethyl-1,4-dihydro-1,6-naphthyridine-3-formamide], the figure is 28.5 nM; as for `CC1=C(C(N)=O)C(c2ccc(C#N)c3c2OCC3)c2c(OCC3CC3)ncc(C)c2N1` (stereo not drawn) [Example 19, 4-cyano-2,3-dihydrobenzofuran-7-yl-5-cyclopropylmethoxy-2,8-dimethyl-1,4-dihydro-1,6-naphthyridine-3-formamide], 27.7 nM. Take `CC1=C(C(N)=O)C(c2ccc(C#N)c3c2OCC3)c2c(OC(C)C)ncc(C)c2N1` (stereo not drawn) [Example 20, 4-(4-cyano-2,3-dihydro-1-benzofuran-7-yl)-5-isopropoxy-2,8-dimethyl-1,4-dihydro-1,6-naphthyridine-3-formamide]: the 50% inhibitory concentration (IC50) was determined as 15.2 nM. Take `CC1=C(C(N)=O)C(c2ccc(C#N)c3c2OCC3)c2c(OC3CCC3)ncc(C)c2N1` (stereo not drawn) [Example 21, 4-(4-cyano-2,3-dihydrobenzofuran-7-yl)-5-cyclobutoxy-2,8-dimethyl-1,4-dihydro-1,6-naphthyridine-3-formamide]: the IC50 is 20.2 nM. The value for `CC1=C(C(N)=O)C(c2ccc(C#N)c3c2OCC3)c2c(OCC3CCC3)ncc(C)c2N1` (stereo not drawn) [Example 22] was 8.7 nM; that for `CC1=C(C(N)=O)C(c2ccc(C#N)c3c2OCC3)c2c(OC(F)(F)F)ncc(C)c2N1` (stereo not drawn) [Example 23, 4-cyano-2,3-dihydrobenzofuran-7-yl-2,8-dimethyl-5-trifluoromethoxy-1,4-dihydro-1,6-naphthyridine-3-formamide] was 24.8 nM. The value for `CC1=C(C(N)=O)C(c2ccc(C#N)c3c2OCC3)c2c(OCC(F)(F)F)ncc(C)c2N1` (stereo not drawn) [Example 24, 4-cyano-2,3-dihydrobenzofuran-7-yl-2,8-dimethyl-5-(2,2,2-trifluoroethoxy)-1,4-dihydro-1,6-naphthyridine-3-formamide] was 7.9 nM; that for `CCOc1ncc(C)c2c1C(c1ccc(C#N)c3c1OCCO3)C(C(N)=O)=C(C)N2` (stereo not drawn) [Example 25, 4-(8-cyano-2,3-dihydrobenzo[b][1,4]dioxin-5-yl)-5-ethoxy-2,8-dimethyl-1,4-dihydro-1,6-naphthyridine-3-formamide] was 37.5 nM; that for `CCOc1ncc(C)c2c1[C@H](c1ccc(C#N)c3c1OCCC3)C(C(N)=O)=C(C)N2` [Example 32, (S)-4-(5-cyanored-8-yl)-5-ethoxy-2,8-dimethyl-1,4-dihydro-1,6-naphthyridine-3-formamide] was 8 nM. `CCOc1ncc(C)c2c1[C@H](c1ccc(C#N)c3c1OCCO3)C(C(N)=O)=C(C)N2` [Example 40, (S)-4-(8-cyano-2,3-dihydrobenzo[b][1,4]dioxin-5-yl)-5-ethoxy-2,8-dimethyl-1,4-dihydro-1,6-naphthyridine-3-formamide]: the IC50 was determined as 12.7 nM.
